Marks after values point to notes of the source that are not given here.
Columns and labels:
human CYP11B2 (hCYP11B2) = target: T1, human CYP11B2 (hCYP11B2) (Homo sapiens, UniProt P19099); test: Assay of hCYP11B2 inhibition (11-DOC to aldosterone); type: biochemical; conditions: mitochondrial fraction of V79 cells stably expressing hCYP11B2; substrate 11-DOC; read-out: Inhibition constant (Ki) hCYP11B2
T1 construct: expressed in transfected cells; host or cells: V79 cells (mitochondrial fraction)
Description: The inhibitory effects of Compound A on human CYP 11B1 (hCYP11B1) and human CYP11B2 (hCYP11B2) enzyme activity were evaluated by determining the enzymatic conversion rates of 11-deoxycortisol to cortisol for hCYP11B1 and 11-DOC to aldosterone for hCYP11B2.

[1] = system: 46 targets in receptor binding and enzyme inhibition studies; test: Pan-receptor screening
Text: Compound A, at a concentration of 10 μmol/L, was screened against 46 targets in receptor binding and enzyme inhibition studies to determine if Compound A interacted with any off-target enzymes or receptors.

hypertensive subjects = test: Example 4 dose-ranging study: 24-hour ambulatory blood pressure monitoring (ABPM); type: in vivo, human; conditions: for Change in ABPM (24 h) BPdias, Mean (sem) / Change in ABPM (24 h) BPmcan, Mean (sem) / Change in ABPM (24 h) BPsys, Mean (sem) / Change in ABPM (night) BPsys, Mean (sem) / Subjects with nighttime Dip 10-20% / Subjects with nighttime Dip <10% / Subjects with nighttime Dip >20%: Week 8, Full Analysis Set
[2] = Example 4 dose-ranging study: safety (adverse events, serum potassium, eGFR); type: in vivo, human
Description: Subjects orally administered the assigned study drug (Compound A HBr or placebo) according to the assigned dosing regimen for 8 weeks beginning on Study Day 1. All subjects in Part 1 (regardless of dosing group) received BID dosing to preserve the integrity of the blind; active drug is administered as the morning dose for all QD dose groups. Subjects returned to the research facility or were seen by the clinical investigator or approved home health care professional at the end of Study Weeks 1, 2, 3, 4, 5, 6, 7, and 8 (±2 days) for protocol-defined efficacy and safety assessments and procedures, assessment of adverse events (AEs), and confirmation of compliance with study drug usage. Subjects also completed a telephone visit and blood pressure (BP) check at home approximately 3 days post last dose of study drug. Subjects attended up to 14 full clinic visits, including a pre-Screening visit, a Screening/start of Placebo Run-in visit, a second visit during Placebo Run-in, a clinic visit to initiate the ABPM procedure, a Randomization visit, 8 weekly visits during double-blind treatment, and an end-of-study visit scheduled 4 weeks after the last study treatment for final efficacy and safety assessments.

[3] = pooled (Part 1 and Part 2) 100 mg QD safety set (n=60)

T1 sequence (P19099 25-503): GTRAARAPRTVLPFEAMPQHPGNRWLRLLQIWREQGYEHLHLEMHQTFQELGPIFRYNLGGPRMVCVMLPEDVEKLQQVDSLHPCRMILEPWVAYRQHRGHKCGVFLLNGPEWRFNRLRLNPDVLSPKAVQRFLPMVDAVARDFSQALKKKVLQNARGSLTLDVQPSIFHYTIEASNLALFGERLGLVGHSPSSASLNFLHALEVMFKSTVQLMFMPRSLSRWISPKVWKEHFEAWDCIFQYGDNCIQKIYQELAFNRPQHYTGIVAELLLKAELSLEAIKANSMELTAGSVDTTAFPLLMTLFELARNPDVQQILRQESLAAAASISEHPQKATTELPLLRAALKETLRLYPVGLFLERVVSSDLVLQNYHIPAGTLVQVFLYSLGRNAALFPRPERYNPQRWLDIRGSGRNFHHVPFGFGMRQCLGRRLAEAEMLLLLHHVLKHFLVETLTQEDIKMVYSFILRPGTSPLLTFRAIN

CC(=O)N[C@H]1CC[C@H](NC(=O)CN2CCN(c3nncc(-c4ccc(C)cc4)n3)CC2)CC1 [Compound A]
Ki (human CYP11B2 (hCYP11B2)): 1.27 nM
inhibition of 46 primary molecular target receptors or enzymes ([1]; 10 μmol/L): did not substantially inhibit
IC50 ([1]; any of 46 targets, read-out: IC50 for off-target receptors or enzymes): > 10000 nM

CC(=O)N[C@H]1CC[C@H](NC(=O)CN2CCN(c3nncc(-c4ccc(C)cc4)n3)CC2)CC1 [Compound A HBr]
overnight reduction of systolic BP (24 h ambulatory) (hypertensive subjects; 100 mg QD cohort): −11.5+/−2.9 mmHg
Change in ABPM (24 h) BPdias, Mean (sem) (hypertensive subjects; 12.5 mg BID): −5.4 (2.2) mmHg
Change in ABPM (24 h) BPmcan, Mean (sem) (hypertensive subjects; 12.5 mg BID): −5.5 (2.7) mmHg
Change in ABPM (24 h) BPsys, Mean (sem) (hypertensive subjects; 12.5 mg BID): −5.7 (3.2) mmHg
Change in ABPM (night) BPsys, Mean (sem) (hypertensive subjects; 12.5 mg BID): −7.5 (4.0) mmHg
Subjects with nighttime Dip 10-20% (hypertensive subjects; 12.5 mg BID): 31%
Subjects with nighttime Dip <10% (hypertensive subjects; 12.5 mg BID): 69%
Subjects with nighttime Dip >20% (hypertensive subjects; 12.5 mg BID): 0%
Change in ABPM (24 h) BPdias, Mean (sem) (hypertensive subjects; 12.5 mg QD): −2.3 (1.7) mmHg
Change in ABPM (24 h) BPmcan, Mean (sem) (hypertensive subjects; 12.5 mg QD): −3.7 (2.6) mmHg
Change in ABPM (24 h) BPsys, Mean (sem) (hypertensive subjects; 12.5 mg QD): −5.2 (3.4) mmHg
Change in ABPM (night) BPsys, Mean (sem) (hypertensive subjects; 12.5 mg QD): −5.4 (4.2) mmHg
Subjects with nighttime Dip 10-20% (hypertensive subjects; 12.5 mg QD): 36%
Subjects with nighttime Dip <10% (hypertensive subjects; 12.5 mg QD): 64%
Subjects with nighttime Dip >20% (hypertensive subjects; 12.5 mg QD): 0%
Change in ABPM (24 h) BPdias, Mean (sem) (hypertensive subjects; 25 mg BID): −6.1 (1.8) mmHg
Change in ABPM (24 h) BPmcan, Mean (sem) (hypertensive subjects; 25 mg BID): −7.4 (2.3) mmHg
Change in ABPM (24 h) BPsys, Mean (sem) (hypertensive subjects; 25 mg BID): −8.7 (2.9) mmHg
Change in ABPM (night) BPsys, Mean (sem) (hypertensive subjects; 25 mg BID): −6.0 (2.8) mmHg
Subjects with nighttime Dip 10-20% (hypertensive subjects; 25 mg BID): 17%
Subjects with nighttime Dip <10% (hypertensive subjects; 25 mg BID): 79%
Subjects with nighttime Dip >20% (hypertensive subjects; 25 mg BID): 4%
Change in ABPM (24 h) BPdias, Mean (sem) (hypertensive subjects; 50 mg QD): −3.0 (1.6) mmHg
Change in ABPM (24 h) BPmcan, Mean (sem) (hypertensive subjects; 50 mg QD): −2.4 (2.2) mmHg
Change in ABPM (24 h) BPsys, Mean (sem) (hypertensive subjects; 50 mg QD): −1.8 (3.0) mmHg
Change in ABPM (night) BPsys, Mean (sem) (hypertensive subjects; 50 mg QD): 2.4 (4.2) mmHg
Subjects with nighttime Dip 10-20% (hypertensive subjects; 50 mg QD): 21%
Subjects with nighttime Dip <10% (hypertensive subjects; 50 mg QD): 78%
Subjects with nighttime Dip >20% (hypertensive subjects; 50 mg QD): 0%
Change in ABPM (24 h) BPdias, Mean (sem) (hypertensive subjects; 100 mg QD): −5.9 (1.5) mmHg
Change in ABPM (24 h) BPmcan, Mean (sem) (hypertensive subjects; 100 mg QD): −7.4 (1.8) mmHg
Change in ABPM (24 h) BPsys, Mean (sem) (hypertensive subjects; 100 mg QD): −8.9 (2.2) mmHg
Change in ABPM (night) BPsys, Mean (sem) (hypertensive subjects; 100 mg QD): −11.5 (2.5) mmHg
Subjects with nighttime Dip 10-20% (hypertensive subjects; 100 mg QD): 46%
Subjects with nighttime Dip <10% (hypertensive subjects; 100 mg QD): 46%
Subjects with nighttime Dip >20% (hypertensive subjects; 100 mg QD): 8%
Study drug discontinuation: Hyperkalemia, subjects (%) ([2]; 100 mg QD Pooled, N 60): 2 (3.3%)
Study drug discontinuation: Hyponatremia, subjects (%) ([2]; 100 mg QD Pooled, N 60): 1 (1.7%)
Study drug discontinuation: Hypotension, subjects (%) ([2]; 100 mg QD Pooled, N 60): 2 (3.3%)
Study drug discontinuation: Other possibly related, subjects (%) ([2]; 100 mg QD Pooled, N 60): 1 (1.7%)
Study drug discontinuation: Other unrelated, subjects (%) ([2]; 100 mg QD Pooled, N 60): 4 (6.7%)
Individuals with verified or multiple increased Serum K+ 5.2-5.5 mMol/L, number (%) ([2]; 100 mg QD, Part 1): 5 (18.5%)
Individuals with verified or multiple increased Serum K+ 5.6-6.0 mMol/L, number (%) ([2]; 100 mg QD, Part 1): 3 (10.7%)
Individuals with verified or multiple increased Serum K+ 6.1-6.5 mMol/L, number (%) ([2]; 100 mg QD, Part 1): 0
Individuals with increased Serum K+ >6.5 mMol/L, number ([2]; 100 mg QD, Part 1, isolated incident not verified by repeat measurement): 1*
Individuals with verified or multiple increased Serum K+ 5.2-5.5 mMol/L, number (%) ([2]; 100 mg QD, Part 2): 1 (4%)
Individuals with verified or multiple increased Serum K+ 5.6-6.0 mMol/L, number (%) ([2]; 100 mg QD, Part 2): 0
Individuals with verified or multiple increased Serum K+ 6.1-6.5 mMol/L, number (%) ([2]; 100 mg QD, Part 2): 0
Individuals with verified or multiple increased Serum K+ >6.5 mMol/L, number ([2]; 100 mg QD, Part 2): 0
Individuals with verified or multiple increased Serum K+ 5.2-5.5 mMol/L, number (%) ([2]; 100 mg QD, Pooled): 6 (10.3%)
Individuals with verified or multiple increased Serum K+ 5.6-6.0 mMol/L, number (%) ([2]; 100 mg QD, Pooled): 3 (5.2%)
Individuals with verified or multiple increased Serum K+ 6.1-6.5 mMol/L, number (%) ([2]; 100 mg QD, Pooled): 0
Individuals with verified or multiple increased Serum K+ >6.5 mMol/L, number ([2]; 100 mg QD, Pooled): 0
Study drug discontinuation: Hyperkalemia, subjects (%) ([2]; Part 1 100 mg QD, N 29): 2 (6.9%)
Study drug discontinuation: Hyponatremia, subjects (%) ([2]; Part 1 100 mg QD, N 29): 0
Study drug discontinuation: Hypotension, subjects (%) ([2]; Part 1 100 mg QD, N 29): 1 (3.4%)
Study drug discontinuation: Other possibly related, subjects (%) ([2]; Part 1 100 mg QD, N 29): 1 (3.4%)
Study drug discontinuation: Other unrelated, subjects (%) ([2]; Part 1 100 mg QD, N 29): 3 (6.0%)
Change in group mean serum potassium (K+), Mean ([2]; Part 1, N 26 (dose not given)): +0.50 mMol/L
Study drug discontinuation: Hyperkalemia, subjects (%) ([2]; Part 1 All active, N 159): 6 (3.8%)
Study drug discontinuation: Hyponatremia, subjects (%) ([2]; Part 1 All active, N 159): 0
Study drug discontinuation: Hypotension, subjects (%) ([2]; Part 1 All active, N 159): 2 (1.2%)
Study drug discontinuation: Other possibly related, subjects (%) ([2]; Part 1 All active, N 159): 1 (0.6%)
Study drug discontinuation: Other unrelated, subjects (%) ([2]; Part 1 All active, N 159): 11 (6.9%)
Study drug discontinuation: Hyperkalemia, subjects (%) ([2]; Part 2 100 mg QD, N 31): 0
Study drug discontinuation: Hyponatremia, subjects (%) ([2]; Part 2 100 mg QD, N 31): 1 (3.4%)
Study drug discontinuation: Hypotension, subjects (%) ([2]; Part 2 100 mg QD, N 31): 1 (2.8%)
Study drug discontinuation: Other possibly related, subjects (%) ([2]; Part 2 100 mg QD, N 31): 0
Study drug discontinuation: Other unrelated, subjects (%) ([2]; Part 2 100 mg QD, N 31): 1 (2.8%)
Change in group mean serum potassium (K+), Mean ([2]; Part 2, N 31 (dose not given)): +0.23 mMol/L
Change in group mean serum potassium (K+), Mean ([2]; Pooled, N 57 (dose not given)): +0.35 mMol/L
Study drug discontinuation: Hyperkalemia, subjects (%) ([2]; Total active, N 190): 6 (3.2%)
Study drug discontinuation: Hyponatremia, subjects (%) ([2]; Total active, N 190): 1 (0.5%)
Study drug discontinuation: Hypotension, subjects (%) ([2]; Total active, N 190): 3 (1.6%)
Study drug discontinuation: Other possibly related, subjects (%) ([2]; Total active, N 190): 1 (0.5%)
Study drug discontinuation: Other unrelated, subjects (%) ([2]; Total active, N 190): 12 (6.3%)
change in eGFR ([2]; dosing cohorts): dose-dependent and reversible reduction in eGFR
effects on serum cortisol [2, 3]: no effects on serum cortisol
episodes of hyperkalemia [2, 3]: few episodes of mild or moderate hyperkalemia and no episodes of severe hyperkalemia
serious adverse events (SAEs) related to the study medication ([2]; whole trial): No serious adverse events (SAEs) related to the study medication
